Literature values in PMC9046186, “A distinctive ligand recognition mechanism by the human vasoactive intestinal polypeptide receptor 2” (Nature Communications, 2022).

Columns and labels:
VIP2R = conditions: introduction, Fig. 1a, b; no reference given
VIP1R = conditions: introduction, Fig. 1a, b; no reference given

Substance	affinity at VIP2R (VIP2R)	affinity at VIP1R (VIP1R)
Vasoactive intestinal peptide [VIP]	comparable affinity	comparable affinity
pituitary adenylate cyclase-activating polypeptide [PACAP38]	comparable affinity	comparable affinity
